Measured values from patent US20050203056A1, “Carboxyl-reduced derivatives of hyaluronic acid, preparation thereof, use thereof as a medicinal product and the pharmaceutical compositions containing them” (Aventis Pharma S.A., priority 2003, published 2005).

How the values were obtained:
[1] = molecular target: aggrecanase; assay: Effect on the aggrecanase in synovial fluids or on preparations of recombinant ADAMTS protein (BC-3 ELISA, Agg1mut substrate); format: biochemical
Description: Effect of the carboxyl-reduced derivatives on the aggrecanase in synovial fluids or on preparations of recombinant ADAMTS protein.
The analysis is carried out on 96-well plates.
In each well, a fixed volume of synovial fluid or aggrecanase activity generating a known increase, between 1.0 and 1.4 absorbance units (405 nm), under the conditions of the analysis, is mixed with 3 μl of solution of compound from the respective dilution step. Dulbecco's modified Eagle's medium (DMEM) is added to each well to give a final volume of 300 μl. The plate is then incubated for 1 hour at 37° C. in a carbon dioxide atmosphere.
After the addition of 5 μl of a solution of […] of recombinant substrate Agglmut in DMEM to each well (substrate as described by Bartnik E. et al., EP 785274, 1997), the reagent mixture is incubated for 4 hours at 37° C. under a carbon dioxide atmosphere.
In a first step, the microplate is coated with 100 μl per well of a commercial goat anti-mouse IgG antibody for 1 hour at ambient temperature (5 μg/ml in a phosphate buffered saline solution, pH 7.4 [PBS buffer]). After washing with the PBS buffer containing 0.1% of Tween-20 (washing buffer), the wells are blocked by means of a step consisting of a one hour incubation with 100 μl per well of 5% bovine serum albumin in a PBS buffer containing 0.05% of Tween-20. Following another rinse with the washing buffer, each well is incubated with 100 μl of a solution, diluted to 1:1000, of BC-3 antibody in a PBS buffer containing 0.05% of Tween 20 and 0.5% of bovine serum albumin, at ambient temperature for one hour. This antibody recognizes the typical aggrecanase cleavage fragments (Hughes C. E. et al., Biochem. J. 305 (3), 799-804, 1995).
After another rinse of the analytical plate with the washing buffer, the complete set of mixtures originating from the preceding digestion is transferred to this plate, well by well, and incubated at ambient temperature for one hour. The plate is again washed as above. Next, 100 μl of the second antibody (anti-human IgG antibody labeled with peroxidase, 1:1000 in PBS containing 0.5% of BSA and 0.05% of Tween-20) are added to each well, with subsequent incubation at ambient temperature again for one hour. After a final rinse with the washing buffer, the color development is initiated by adding 100 μl of ABTS substrate solution (2 mg/ml, 2,2′-azinobis(3-ethyl-benzothiazoline)sulfonic acid) in 40 mM of sodium citrate plus 60 mM of disodium hydrogen phosphate, adjusted to a pH of 4.4 by adding acetic acid; 0.25 μl of 35% hydrogen peroxide added per ml immediately before measurement). […] The development is stopped as soon as the maximum signal (405 nm) in the absorbance range of 1.0 to 1.4 is reached.

[2] = molecular target: T1, bovine factor Xa (Bos taurus, UniProt P00743); details: calibration reference; cited from earlier work
T1 sequence (P00743 234-492 limits assumed): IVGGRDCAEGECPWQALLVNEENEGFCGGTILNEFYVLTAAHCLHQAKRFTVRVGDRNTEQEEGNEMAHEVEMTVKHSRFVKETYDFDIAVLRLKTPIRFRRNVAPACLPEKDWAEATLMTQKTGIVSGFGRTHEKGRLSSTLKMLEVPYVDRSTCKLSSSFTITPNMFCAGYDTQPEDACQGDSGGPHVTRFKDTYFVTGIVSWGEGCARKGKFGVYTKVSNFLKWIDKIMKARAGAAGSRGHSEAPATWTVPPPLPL

[3] = molecular target: T1, bovine factor Xa; details: calibrated against Enoxaparin
Description: For the calibration, a standard sample of low molecular weight heparin (Enoxaparin) was used as reference.
The serial dilutions of the assay compound are prepared in a 0.046 M Tris buffer, pH 8.4, containing 0.15 M NaCl, 0.007 M EDTA, 0.1% of Tween 80 and 0.12 IU/ml of human antithrombin III. The samples of 50 μl of the respective dilutions are incubated with 50 μl of bovine factor Xa (13.6 U/ml) at 37° C. for 80 seconds. Next, 50 μl of chromogenic substrate, 1.1 mM S-2765, are added. […] The activity of the deblocked factor Xa is indicated by the emission of p-nitroaniline from the substrate.

[4] = molecular target: T2, human neutrophil elastase (Homo sapiens, UniProt P08246)
T2 sequence (P08246 30-267): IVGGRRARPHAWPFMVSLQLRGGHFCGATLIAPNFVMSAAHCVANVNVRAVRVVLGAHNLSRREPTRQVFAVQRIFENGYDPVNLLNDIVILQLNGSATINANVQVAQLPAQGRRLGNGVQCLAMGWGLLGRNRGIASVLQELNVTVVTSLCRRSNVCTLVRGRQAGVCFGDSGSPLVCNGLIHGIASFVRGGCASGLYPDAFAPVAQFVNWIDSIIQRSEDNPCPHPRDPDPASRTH
Description: A commercially available enzyme (for example, human neutrophil elastase, sigma No. E8140) is reconstituted in aliquots of 0.1 mg per vial with 0.276 ml of 50 mM sodium acetate buffer, pH 5.5, containing 200 mM NaCl (stock solution of the enzyme); 11 μl of this stock solution are diluted with 1.1 ml of the HEPES buffer above (enzyme assay solution).
The substrate solution is prepared by dissolving 118 mg of methoxy-succinyl-L-Ala-L-Ala-L-Pro-L-Val-p-nitro-anilide in 1 ml of DMSO (stock solution, for example sigma No. M4765). In view of the application in the analysis, 9 μl of stock solution are then diluted in 1.19 ml of water.
The serial dilutions of the assay compounds are prepared in 100 mM of HEPES buffer containing 500 mM NaCl. The analysis is carried out on colorless 96-well polystyrene microplates (for example, Corning Costar, No. 3695).
10 μl of assay enzyme solution are mixed with 10 μl of the respective diluted compound solution and 10 μl of the substrate solution. After incubation for 15 min, the cleavage of the substrate is read as increase in absorbance at 405 nm.

Row | aggrecanase-inhibiting activity [1] | Substance | IC50 (μg/ml) for inhibition [1] | % conversion ([1]; glycosaminoglycan 0.0001 μg/ml) [%] | % conversion ([1]; glycosaminoglycan 0.001 μg/ml) [%] | % conversion ([1]; glycosaminoglycan 0.01 μg/ml) [%] | % conversion ([1]; glycosaminoglycan 0.1 μg/ml) [%] | % conversion ([1]; glycosaminoglycan 1 μg/ml) [%] | % conversion ([1]; glycosaminoglycan 10 μg/ml) [%] | factor Xa inhibitory activity of the reference standard [2] [U/mg] | factor Xa inhibitory activity [3] [U/mg] | IC50 [4] [µg/mL]
1 | – | Carboxyl-Reduced Hyaluronic Acid Sodium Salt [example 1] | no | 100 | 100 | 100 | 100 | 100 | 100 | – | – | –
2 | no aggrecanase-inhibiting activity | hyaluronic acid [reference compound] | – | – | – | – | – | – | – | – | – | –
3 | – | Enoxaparin | – | – | – | – | – | – | – | 100 | – | –
4 | – | Carboxyl-Reduced and Persulfated Hyaluronic Acid Sodium Salt [example 3] | 0.025 µg/mL | 93 | 84.9 | 54.3 | 28 | 27.4 | 21 | – | 1.75 | 7.0
